Source: the supplement of paper PMC13380429

How the values were obtained:
Details in all cases: 72 h
Caco-2 [1] = experiment: cell viability relative to DMSO; higher = less toxic
Calu-3 [2] = experiment: as above
HepG2 [3] = experiment: as above
U2OS [4] = experiment: as above
Vero E6 [5] = experiment: as above
Calu-3 [6] = experiment: relative viability EC50 (midpoint between 100% and the lowest measured viability); higher = less toxic
HepG2 [7] = experiment: as above
U2OS [8] = experiment: as above
Vero E6 [9] = experiment: as above
Caco-2 [10] = experiment: drug sensitivity score (DSS) for viability; higher = more toxic; extreme values may be limits of the assay
Calu-3 [11] = experiment: as above
HepG2 [12] = experiment: as above
U2OS [13] = experiment: as above
Vero E6 [14] = experiment: as above

O=C(Nc1cccnc1)N1CCC(Cc2cccc(Oc3ccc(C(F)(F)F)cn3)c2)CC1 [PF-3845]
cell viability (Caco-2 [1]; 1 nM): 99.7%
cell viability (Caco-2 [1]; 10 nM): 103%
cell viability (Caco-2 [1]; 100 nM): 90.3%
cell viability (Caco-2 [1]; 1000 nM): 92.4%
cell viability (Caco-2 [1]; 10000 nM): 66.9%
cell viability (Calu-3 [2]; 1 nM): 103%
cell viability (Calu-3 [2]; 10 nM): 105%
cell viability (Calu-3 [2]; 100 nM): 104%
cell viability (Calu-3 [2]; 1000 nM): 102%
cell viability (Calu-3 [2]; 10000 nM): 79.1%
cell viability (HepG2 [3]; 1 nM): 109%
cell viability (HepG2 [3]; 10 nM): 102%
cell viability (HepG2 [3]; 100 nM): 98.3%
cell viability (HepG2 [3]; 1000 nM): 101%
cell viability (HepG2 [3]; 10000 nM): 32.7%
cell viability (U2OS [4]; 1 nM): 97.3%
cell viability (U2OS [4]; 10 nM): 107%
cell viability (U2OS [4]; 100 nM): 101%
cell viability (U2OS [4]; 1000 nM): 98.5%
cell viability (U2OS [4]; 10000 nM): 82.7%
cell viability (Vero E6 [5]; 1 nM): 103%
cell viability (Vero E6 [5]; 10 nM): 96.8%
cell viability (Vero E6 [5]; 100 nM): 89.9%
cell viability (Vero E6 [5]; 1000 nM): 101%
cell viability (Vero E6 [5]; 10000 nM): 78.7%
relative viability EC50 (Calu-3 [6]): > 10 µM
relative viability EC50 (HepG2 [7]): 3.25 µM
relative viability EC50 (U2OS [8]): > 10 µM
relative viability EC50 (Vero E6 [9]): > 10 µM
drug sensitivity score (Caco-2 [10]): 2.4
drug sensitivity score (Calu-3 [11]): 0.5
drug sensitivity score (HepG2 [12]): 3.6
drug sensitivity score (U2OS [13]): 0.6
drug sensitivity score (Vero E6 [14]): 0.6

CC[C@H](C)C(=O)O[C@H]1C[C@H](O)C=C2C=C[C@H](C)[C@H](CC[C@@H](O)C[C@@H](O)CC(=O)O)[C@H]21 [PRAVASTATIN SODIUM]
cell viability (Calu-3 [2]; 1 nM): 98.2%
cell viability (Calu-3 [2]; 10 nM): 93.8%
cell viability (Calu-3 [2]; 100 nM): 93.3%
cell viability (Calu-3 [2]; 1000 nM): 98.2%
cell viability (Calu-3 [2]; 10000 nM): 95.2%
cell viability (HepG2 [3]; 1 nM): 112%
cell viability (HepG2 [3]; 10 nM): 105%
cell viability (HepG2 [3]; 100 nM): 93%
cell viability (HepG2 [3]; 1000 nM): 86.1%
cell viability (HepG2 [3]; 10000 nM): 112%
cell viability (U2OS [4]; 1 nM): 97.7%
cell viability (U2OS [4]; 10 nM): 100%
cell viability (U2OS [4]; 100 nM): 94.2%
cell viability (U2OS [4]; 1000 nM): 101%
cell viability (U2OS [4]; 10000 nM): 98.5%
cell viability (Vero E6 [5]; 1 nM): 98.9%
cell viability (Vero E6 [5]; 10 nM): 109%
cell viability (Vero E6 [5]; 100 nM): 107%
cell viability (Vero E6 [5]; 1000 nM): 96.4%
cell viability (Vero E6 [5]; 10000 nM): 105%
relative viability EC50 (Calu-3 [6]): > 10 µM
relative viability EC50 (U2OS [8]): > 10 µM
relative viability EC50 (Vero E6 [9]): > 10 µM
drug sensitivity score (Calu-3 [11]): 0
drug sensitivity score (HepG2 [12]): 0
drug sensitivity score (U2OS [13]): 0
drug sensitivity score (Vero E6 [14]): 0

N#CC(=C(/N)Sc1ccccc1N)/C(C#N)=C(/N)Sc1ccccc1N [U-0126]
cell viability (Caco-2 [1]; 1 nM): 100%
cell viability (Caco-2 [1]; 10 nM): 96.8%
cell viability (Caco-2 [1]; 100 nM): 99.3%
cell viability (Caco-2 [1]; 1000 nM): 86.4%
cell viability (Caco-2 [1]; 10000 nM): 65%
cell viability (Calu-3 [2]; 1 nM): 94.6%
cell viability (Calu-3 [2]; 10 nM): 102%
cell viability (Calu-3 [2]; 100 nM): 100%
cell viability (Calu-3 [2]; 1000 nM): 90.6%
cell viability (Calu-3 [2]; 10000 nM): 93.5%
cell viability (HepG2 [3]; 1 nM): 101%
cell viability (HepG2 [3]; 10 nM): 95.9%
cell viability (HepG2 [3]; 100 nM): 94.7%
cell viability (HepG2 [3]; 1000 nM): 70.6%
cell viability (HepG2 [3]; 10000 nM): 41%
cell viability (U2OS [4]; 1 nM): 98.2%
cell viability (U2OS [4]; 10 nM): 104%
cell viability (U2OS [4]; 100 nM): 96.9%
cell viability (U2OS [4]; 1000 nM): 98.3%
cell viability (U2OS [4]; 10000 nM): 84.3%
cell viability (Vero E6 [5]; 1 nM): 102%
cell viability (Vero E6 [5]; 10 nM): 99.9%
cell viability (Vero E6 [5]; 100 nM): 97.9%
cell viability (Vero E6 [5]; 1000 nM): 88.6%
cell viability (Vero E6 [5]; 10000 nM): 80.9%
relative viability EC50 (Calu-3 [6]): > 10 µM
relative viability EC50 (HepG2 [7]): 0.953 µM
relative viability EC50 (U2OS [8]): > 10 µM
relative viability EC50 (Vero E6 [9]): > 10 µM
drug sensitivity score (Caco-2 [10]): 3.4
drug sensitivity score (Calu-3 [11]): 0
drug sensitivity score (HepG2 [12]): 6.6
drug sensitivity score (U2OS [13]): 0.4
drug sensitivity score (Vero E6 [14]): 1.3

CCCSc1ccc2[nH]c(NC(=O)OC)nc2c1 [albendazole]
cell viability (Caco-2 [1]; 1 nM): 87.7%
cell viability (Caco-2 [1]; 10 nM): 98.6%
cell viability (Caco-2 [1]; 100 nM): 96.9%
cell viability (Caco-2 [1]; 1000 nM): 88%
cell viability (Caco-2 [1]; 10000 nM): 66.7%
cell viability (Calu-3 [2]; 1 nM): 107%
cell viability (Calu-3 [2]; 10 nM): 102%
cell viability (Calu-3 [2]; 100 nM): 111%
cell viability (Calu-3 [2]; 1000 nM): 94.7%
cell viability (Calu-3 [2]; 10000 nM): 66.4%
cell viability (HepG2 [3]; 1 nM): 103%
cell viability (HepG2 [3]; 10 nM): 97.9%
cell viability (HepG2 [3]; 100 nM): 85.6%
cell viability (HepG2 [3]; 1000 nM): 68.7%
cell viability (HepG2 [3]; 10000 nM): 33.1%
cell viability (U2OS [4]; 1 nM): 101%
cell viability (U2OS [4]; 10 nM): 100%
cell viability (U2OS [4]; 100 nM): 94.5%
cell viability (U2OS [4]; 1000 nM): 81.1%
cell viability (U2OS [4]; 10000 nM): 47.8%
cell viability (Vero E6 [5]; 1 nM): 105%
cell viability (Vero E6 [5]; 10 nM): 95.3%
cell viability (Vero E6 [5]; 100 nM): 104%
cell viability (Vero E6 [5]; 1000 nM): 80.1%
cell viability (Vero E6 [5]; 10000 nM): 34.6%
relative viability EC50 (HepG2 [7]): 0.824 µM
relative viability EC50 (U2OS [8]): 1.37 µM
relative viability EC50 (Vero E6 [9]): 1.39 µM
drug sensitivity score (Caco-2 [10]): 2.8
drug sensitivity score (Calu-3 [11]): 2.4
drug sensitivity score (HepG2 [12]): 7.8
drug sensitivity score (U2OS [13]): 4.9
drug sensitivity score (Vero E6 [14]): 6.5
